Results as given in the supplement of paper PMC10307832.

Assays:
Assay in all cases: relative viability (nuclei count vs DMSO), 5 days (fraction); higher = more cells survive
[1] = compound: Cc1cnc(CNC(=O)c2c(=O)c3ccc(N4CCCN(C)CC4)nc3n3c2sc2ccccc23)cn1 [CX-5461] + O=C(c1cc(Cc2n[nH]c(=O)c3ccccc23)ccc1F)N1CCN(C(=O)C2CC2)CC1 [Olaparib] (partner 8 µM)
Procedure, shortened: (§1)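 After 5 days of treatment, lung cancer cells in 1536-well plates were fixed and stained in a single step (final 0.05% Triton X-100, 1% formaldehyde, 1 ug/ml Hoechst) and their nuclei counted on 4× images. Treatment had been applied by pin tool the day after seeding as one drug alone or as a fixed anchor-drug dose with five library-drug doses (not always all listed) in √10 steps. Relative viability is the nuclei count of treated wells divided by that of vehicle wells, and values are medians of duplicate plates.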

[2] = compound: Cc1cnc(CNC(=O)c2c(=O)c3ccc(N4CCCN(C)CC4)nc3n3c2sc2ccccc23)cn1 [CX-5461] + Cc1nc(NC(=O)N2CCC[C@H]2C(N)=O)sc1-c1ccnc(C(C)(C)C(F)(F)F)c1 [Alpelisib] (partner 2 µM)
Procedure, shortened: as §1

[3] = compound: O=C(Nc1cc(C(F)(F)F)cc(C(F)(F)F)c1)c1cc(Cl)ccc1O [IMD-0354] + CC(C)C[C@H](NC(=O)[C@H](Cc1ccccc1)NC(=O)c1cnccn1)B(O)O [Bortezomib] (partner 0.002 µM)
Procedure, shortened: as §1

[4] = compound: O=C(Nc1cc(C(F)(F)F)cc(C(F)(F)F)c1)c1cc(Cl)ccc1O [IMD-0354] + C[C@]1(O)C[C@@H](c2nc(-c3ccc4ccc(-c5ccccc5)nc4c3)c3c(N)nccn32)C1 [Linsitinib] (partner 1 µM)
Procedure, shortened: as §1

| Cell Line | relative viability ([1]; first compound 0.01 µM) | relative viability ([1]; first compound 0.03162 µM) | relative viability ([1]; first compound 0.1 µM) | relative viability ([1]; first compound 0.3162 µM) | relative viability ([1]; first compound 1 µM) | relative viability ([2]; first compound 0.01 µM) | relative viability ([2]; first compound 0.03162 µM) | relative viability ([2]; first compound 0.1 µM) | relative viability ([2]; first compound 0.3162 µM) | relative viability ([2]; first compound 1 µM) | relative viability ([3]; first compound 0.04 µM) | relative viability ([3]; first compound 0.1265 µM) | relative viability ([3]; first compound 0.4 µM) | relative viability ([3]; first compound 1.265 µM) | relative viability ([3]; first compound 4 µM) | relative viability ([4]; first compound 0.04 µM) | relative viability ([4]; first compound 0.1265 µM) | relative viability ([4]; first compound 0.4 µM) | relative viability ([4]; first compound 1.265 µM) | relative viability ([4]; first compound 4 µM) |
| --- | --- | --- | --- | --- | --- | --- | --- | --- | --- | --- | --- | --- | --- | --- | --- | --- | --- | --- | --- | --- |
| HCC-44 | 0.966 | 1.04 | 1.03 | 1 | 1.01 | 0.752 | 0.991 | 0.839 | 0.827 | 0.753 | 0.913 | 0.918 | 0.35 | 0.213 | 0.179 | 0.68 | 0.573 | 0.394 | 0.297 | 0.128 |
| HCC-827 | 0.703 | 0.69 | 0.767 | 0.644 | 0.611 | 0.996 | 0.998 | 1.02 | 0.977 | 0.989 | 1.03 | 1.07 | 0.825 | 0.462 | 0.347 | 0.898 | 0.947 | 0.82 | 0.606 | 0.282 |
| NCI-H2347 | 0.57 | 0.648 | 0.606 | 0.477 | 0.517 | 1.11 | 1.04 | 1.07 | 0.834 | 0.994 | 0.741 | 1.02 | 0.748 | 0.606 | 0.533 | 1.04 | 1.08 | 0.824 | 0.511 | 0.447 |
| PC-14 | 0.241 | 0.252 | 0.125 | 0.213 | 0.0738 | 0.947 | 1.23 | 1.05 | 0.933 | 0.883 | 1.12 | 0.802 | 0.354 | 0.443 | 0.114 | 1.01 | 0.841 | 0.604 | 0.403 | 0.175 |
